Data reported in US11160280B2, “Pesticial compounds” (BASF SE, priority 2017, dated 2021).

How the values were obtained:
Assay type in all cases: in vivo
[1] = system: yellow fever mosquito (Aedes aegypti); assay: whole plant or invertebrate; conditions: 48 h, larval mortality visually assessed after 2 days, read-out: mortality in comparison with untreated controls
Method: Example B1: Action on Yellow Fever Mosquito (Aedes aegypti)
For evaluating control of yellow fever mosquito (Aedes aegypti) the test unit consisted of 96-well-microtiter plates containing 200 μl of tap water per well and 5-15 freshly hatched A. aegypti larvae.
The active compounds were formulated using a solution containing 75% (v/v) water and 25% (v/v) DMSO. Different concentrations of formulated compounds or mixtures were sprayed onto the insect diet at 2.5 μl, using a custom built micro atomizer, at two replications.
After application, microtiter plates were incubated at 28+1° C., 80+5% RH for 2 days. Larval mortality was then visually assessed.

[2] = system: Orchid thrips (Dichromothrips corbetti); assay: Action on orchid thrips (Dichromothrips corbetti), floral-immersion technique; conditions: adult thrips, mortality 72 hours after treatment, read-out: mortality in comparison with untreated controls
Method: Example B2: Action on Orchid thrips (Dichromothrips corbetti)
Dichromothrips corbetti adults used for bioassay were obtained from a colony maintained continuously under laboratory conditions. For testing purposes, the test compound is diluted in a 1:1 mixture of acetone:water (vol:vol), plus Kinetic® HV at a rate of 0.01% v/v.
Thrips potency of each compound was evaluated by using a floral-immersion technique. All petals of individual, intact orchid flowers were dipped into treatment solution and allowed to dry in Petri dishes. Treated petals were placed into individual re-sealable plastic along with about […]. All test arenas were held under continuous light and a temperature of about 28° C. for duration of the assay. After 3 days, the numbers of live thrips were counted on each petal. The percent mortality was recorded 72 hours after treatment.

[3] = system: boll weevil (Anthonomus grandis); assay: Action on boll weevil (Anthonomus grandis), eggs on insect diet in microtiter plates; conditions: 120 h, egg and larval mortality after 5 days, read-out: mortality in comparison with untreated controls
Method: Example B3: Action on Boll Weevil (Anthonomus grandis)
For evaluating control of boll weevil (Anthonomus grandis) the test unit consisted of 96-well-microtiter plates containing an insect diet and 5-10 A. grandis eggs.
The compounds were formulated using a solution containing 75% v/v water and 25% v/v DMSO. Different concentrations of formulated compounds were sprayed onto the insect diet at 5 μl, using a custom built micro atomizer, at two replications.
After application, microtiter plates were incubated at about 25±1° C. and about 75±5% relative humidity for 5 days. Egg and larval mortality was then visually assessed.

[4] = system: tobacco budworm (Heliothis virescens); assay: Action on tobacco budworm (Heliothis virescens), eggs on insect diet in microtiter plates; conditions: 120 h, egg and larval mortality after 5 days, read-out: mortality in comparison with untreated controls
Method: Example B5: Action on Tobacco Budworm (Heliothis virescens)
For evaluating control of tobacco budworm (Heliothis virescens) the test unit consisted of 96-well-microtiter plates containing an insect diet and 15-25 H. virescens eggs.
The compounds were formulated using a solution containing 75% v/v water and 25% v/v DMSO. Different concentrations of formulated compounds were sprayed onto the insect diet at 10 μl, using a custom built micro atomizer, at two replications.
After application, microtiter plates were incubated at about 28±1° C. and about 80±5% relative humidity for 5 days. Egg and larval mortality was then visually assessed.

[5] = system: Diamond Back Moth (Plutella xylostella); assay: Action on diamond back moth (Plutella xylostella), cabbage leaf dip; conditions: foliar, 3rd instar larvae on dipped cabbage leaves, mortality 72 hours after treatment, read-out: mortality in comparison with untreated controls
Method: Example B6: Action on Diamond Back Moth (Plutella xylostella)
The active compound is dissolved at the desired concentration in a mixture of 1:1 (vol:vol) distilled water:acetone. Surfactant (Kinetic® HV) is added at a rate of 0.01% (vol/vol). The test solution is prepared at the day of use.
Leaves of cabbage were dipped in test solution and air-dried. Treated leaves were placed in petri dishes lined with moist filter paper and inoculated with ten 3rd instar larvae. Mortality was recorded 72 hours after treatment. Feeding damages were also recorded using a scale of 0-100%.

[6] = system: Southern Armyworm (Spodoptera eridania), 2nd Instar Larvae; assay: Action on southern armyworm (Spodoptera eridania), 2nd instar larvae on sprayed lima bean plants; conditions: 96 h, 2nd instar larvae on lima bean plants, 4 days after treatment, read-out: mortality in comparison with untreated controls
Method: Example B7: Action on Southern Armyworm (Spodoptera eridania), 2nd Instar Larvae
The active compounds were formulated by a Tecan liquid handler in 100% cyclohexanone as a 10,000 ppm solution supplied in tubes. The 10,000 ppm solution was serially diluted in 100% cyclohexanone to make interim solutions. These served as stock solutions for which final dilutions were made by the Tecan in 50% acetone:50% water (v/v) into 10 or 20 ml glass vials. A nonionic surfactant (Kinetic®) was included in the solution at a volume of 0.01% (v/v). The vials were then inserted into an automated electrostatic sprayer equipped with an atomizing nozzle for application to plants/insects.
Lima bean plants (variety Sieva) were grown 2 plants to a pot and selected for treatment at the 1st true leaf stage. Test solutions were sprayed onto the foliage by an automated electrostatic plant sprayer equipped with an atomizing spray nozzle. The plants were dried in the sprayer fume hood and then removed from the sprayer. Each pot was placed into perforated plastic bags with a zip closure. About 10 to 11 armyworm larvae were placed into the bag and the bags zipped closed. Test plants were maintained in a growth room at about 25° C. and about 20-40% relative humidity for 4 days, avoiding direct exposure to fluorescent light (24 hour photoperiod) to prevent trapping of heat inside the bags. Mortality and reduced feeding were assessed 4 days after treatment, compared to untreated control plants.

CC(C)c1ccccc1N1C(=O)CS/C1=N\N=Cc1cc(F)c2c(C(=O)N(C)c3ccc(OC(F)(F)F)cc3)nn(C)c2c1 [Example C-19, 4-fluoro-6-[[(Z)-[3-(2-isopropylphenyl)-4-oxo-thiazolidin-2-ylidene]hydrazono]methyl]-N,1-dimethyl-N-[4-(trifluoromethoxy)phenyl]indazole-3-carboxamide]
≥ 75%: mortality at 800 ppm [1] | mortality at 500 ppm [2] | mortality at 800 ppm [3] | mortality at 800 ppm [4] | mortality at 500 ppm [5] | mortality at 300 ppm [6]

CC(C)c1ccccc1NC(=S)N/N=C/c1cc2c(cn1)c(COc1ccc(OC(F)(F)F)cc1)nn2C [Example C-15, 1-(2-isopropylphenyl)-3-[(E)-[1-methyl-3-[[4-(trifluoromethoxy)phenoxy]methyl]pyrazolo[4,3-c]pyridin-6 yl]methyleneamino]thiourea]
≥ 75%: mortality at 800 ppm [1] | mortality at 500 ppm [2] | mortality at 800 ppm [3] | mortality at 800 ppm [4] | mortality at 500 ppm [5] | mortality at 300 ppm [6]

Cc1cccc(C)c1N1C(=O)CS/C1=N\N=C\c1ccc2c(COc3ccc(OC(F)(F)F)cc3)nn(C)c2c1 [Example C-2, (2Z)-3-(2,6-dimethylphenyl)-2-[(E)-[1-methyl-3-[[4-(trifluoromethoxy)phenoxy]methyl]indazol-6-yl]methylenehydrazono]thiazolidin-4-one]
≥ 75%: mortality at 800 ppm [1] | mortality at 500 ppm [2] | mortality at 800 ppm [3] | mortality at 800 ppm [4] | mortality at 500 ppm [5]

Cc1cccc(C)c1NC(=S)N/N=C/c1ccc2c(COc3ccc(OC(F)(F)F)cc3)nn(C)c2c1 [Example C-1, 1-(2,6-dimethylphenyl)-3-[(E)-[1-methyl-3-[[4-(trifluoromethoxy)phenoxy]methyl]indazol-6-yl]methyleneamino]thiourea]
≥ 75%: mortality at 800 ppm [1] | mortality at 500 ppm [2] | mortality at 800 ppm [3] | mortality at 800 ppm [4] | mortality at 500 ppm [5] | mortality at 300 ppm [6]

CC(C)c1ccccc1N1C(=O)CS/C1=N\N=C\c1ccc2c(COc3ccc(OC(F)(F)F)cc3)nn(C)c2c1 [Example C-4, (2Z)-3-(2-isopropylphenyl)-2-[(E)-[1-methyl-3-[[4-(trifluoromethoxy)phenoxy]methyl]indazol-6-yl]methylenehydrazono]thiazolidin-4-one]
≥ 75%: mortality at 800 ppm [1] | mortality at 500 ppm [2] | mortality at 800 ppm [3] | mortality at 500 ppm [5]

CC(C)c1ccccc1NC(=S)N/N=C/c1ccc2c(C(=O)Nc3ccc(OC(F)(F)F)cc3)nn(C)c2c1 [Example C-7, 6-[(E)-[(2-isopropylphenyl)carbamothioylhydrazono]methyl]-1-methyl-N-[4-(trifluoromethoxy)phenyl]indazole-3-carboxamide]
≥ 75%: mortality at 800 ppm [1] | mortality at 800 ppm [3] | mortality at 800 ppm [4] | mortality at 500 ppm [5] | mortality at 300 ppm [6]
